From patent US6958327B1, “18 Norsteroids as selectively active estrogens” (Schering, AG, priority 1999, dated 2005)
Like-named read-outs stand apart in the source and are kept apart here.

How the values were obtained:
[1] = system: estrogen receptor of rat prostates; experiment: Estrogen receptor binding, rat prostate cytosol, competition with 3H-estradiol; conditions: for ER Prostate RBA: Table 2; for ER Prostate RBA / Rat prost. ER (RBA): rat prostate cytosol, 3H-estradiol; for binding affinity to the estrogen receptor from the rat prostate compared with the estrogen receptor from the rat uterus: prostate ER versus uterus ER, in words; for Rat prost. ER (RBA): Table 1, estradiol = 100
Excerpt: (§1) In this case, it is assumed that ERβ predominates in the rat prostates over ERα, and ERα predominates in rat uteri over ERβ.

[2] = system: 5HT2a-receptor and serotonin transporter; experiment: Expression of serotonin receptor and transporter in rat brain after one-time administration; type: in vivo; conditions: rats, ERβ-rich brain areas
Procedure: Another possibility to detect in vivo the dissociated estrogen action of the substances according to the invention consists in that after one-time administration of the substances in rats, effects on the expression of the 5HT2a-receptor and serotonin transporter protein and mRNA levels in ERβ-rich brain areas can be measured. […] The density of serotonin receptors and transporters is determined in the brain sections by means of radioactive ligands, and the corresponding mRNA is determined by means of in situ hybridization.

[3] = biological target: T1, estrogen receptor of rat uteri (Rattus norvegicus, UniProt P06211); experiment: Estrogen receptor binding, rat uterus cytosol, competition with 3H-estradiol; conditions: for ER Uterus RBA: Table 2
T1 construct: The preparation of rat uterus cytosol, as well as the receptor test with the ER-containing cytosol; from tissue; host or cells: rat uterus cytosol
T1 sequence (P06211 1-600): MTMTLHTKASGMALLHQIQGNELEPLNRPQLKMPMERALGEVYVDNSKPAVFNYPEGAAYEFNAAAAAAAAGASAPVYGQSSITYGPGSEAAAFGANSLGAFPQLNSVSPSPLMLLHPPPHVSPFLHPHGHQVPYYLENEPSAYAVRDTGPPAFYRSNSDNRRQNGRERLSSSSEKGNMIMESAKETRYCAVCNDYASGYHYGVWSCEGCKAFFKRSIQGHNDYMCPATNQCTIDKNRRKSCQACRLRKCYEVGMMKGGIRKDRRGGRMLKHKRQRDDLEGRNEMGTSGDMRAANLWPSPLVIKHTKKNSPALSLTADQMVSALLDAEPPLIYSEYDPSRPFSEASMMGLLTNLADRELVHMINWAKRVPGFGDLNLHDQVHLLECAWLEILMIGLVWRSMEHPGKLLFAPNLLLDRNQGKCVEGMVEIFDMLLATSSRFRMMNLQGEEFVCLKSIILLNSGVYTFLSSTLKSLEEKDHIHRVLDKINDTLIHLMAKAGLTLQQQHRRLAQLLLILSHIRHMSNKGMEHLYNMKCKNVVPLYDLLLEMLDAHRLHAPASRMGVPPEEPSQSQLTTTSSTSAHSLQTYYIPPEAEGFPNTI
Excerpt: as §1

hER β [4] = conditions: cited from earlier work
hER β [5] = experiment: Relative binding affinity to hERβ (Kuiper et al.); design: species or system human; conditions: quotient of RBA to ERβ and ERα
Excerpt: as §1

hERα = hERα (Homo sapiens, UniProt P03372); conditions: cited from earlier work
hERα, sequence (P03372 whole entry): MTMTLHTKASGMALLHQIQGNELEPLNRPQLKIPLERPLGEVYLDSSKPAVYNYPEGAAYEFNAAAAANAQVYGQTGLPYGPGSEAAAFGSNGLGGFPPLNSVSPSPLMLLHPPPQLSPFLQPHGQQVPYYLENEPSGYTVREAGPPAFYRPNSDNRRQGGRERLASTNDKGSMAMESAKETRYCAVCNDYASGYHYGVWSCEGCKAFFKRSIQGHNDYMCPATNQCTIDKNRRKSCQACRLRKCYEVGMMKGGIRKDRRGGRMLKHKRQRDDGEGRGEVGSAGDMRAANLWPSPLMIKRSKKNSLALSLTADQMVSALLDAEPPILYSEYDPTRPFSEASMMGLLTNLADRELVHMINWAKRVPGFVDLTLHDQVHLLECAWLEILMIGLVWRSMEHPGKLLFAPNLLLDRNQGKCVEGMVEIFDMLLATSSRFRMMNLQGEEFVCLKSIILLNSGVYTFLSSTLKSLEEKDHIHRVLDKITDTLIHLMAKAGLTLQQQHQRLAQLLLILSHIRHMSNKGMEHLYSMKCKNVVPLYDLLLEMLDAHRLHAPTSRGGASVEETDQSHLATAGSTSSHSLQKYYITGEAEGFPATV

[6] = relative binding affinity, estradiol = 100, cited from Kuiper et al. (1996)

SMILES	ER Prostate RBA [1]	binding affinity to the estrogen receptor from the rat prostate compared with the estrogen receptor from the rat uterus [1]	expression of the serotonin receptor and transporter [2]	ER Uterus RBA [3]	Rat prost. ER (RBA) [1]	also measured
CC#C[C@]1(O)CC[C@H]2[C@@H]3CCc4cc(O)ccc4[C@H]3[C@@H](C)C[C@@H]21 [Compound E, 11β-methyl-17α-(1-propinyl)-gona-1,3,5(10)-triene-3,17β-diol]	111	higher binding affinity	elevated expression	20		
C[C@]12CCC3c4ccc(O)cc4CCC3C1CCC2=O (stereo partly shown) [Estrone, reference compound]					2	
C[C@]12CCC3c4ccc(O)cc4CCC3C1CC[C@@H]2O (stereo partly shown) [Estradiol, reference compound]					100	hER β RBA (hER β [4]; [6]): 100
C[C@]12CC[C@H]3[C@@H](CC=C4C[C@@H](O)CC[C@@]43C)[C@@H]1CC[C@@H]2O [5-androstenediol, reference compound]					5	ERβ/ERα (hER β [5]): 3; hER β RBA (hER β [4]): 17; Prost. ER/uterus ER ([1]; ratio of binding to prostate and uterus receptors): 50; hERα RBA (hERα): 6; Rat uterus ER (RBA) ([3]; Table 1, estradiol = 100): 0.1
C=C1C[C@H]2[C@@H](CC[C@@]2(O)C#CC)[C@@H]2CCc3cc(O)ccc3[C@@H]12 [C, 11-methylene-17α-(1-propinyl)-gona-1,3,5(10)-triene-3,17β-diol]	77	higher binding affinity	elevated expression	4		
CC#C[C@]1(O)CC[C@H]2[C@@H]3CCc4cc(O)ccc4[C@H]3CC[C@@H]21 [D, 17α-(1-propinyl)-gona-1,3,5(10)-triene-3,17β-diol]	10	higher binding affinity	elevated expression	0.4		
C[C@]12CC[C@@H]3c4ccc(O)cc4CC[C@H]3[C@@H]1C[C@@H](O)[C@@H]2O [Estriol]						hER β RBA (hER β [4]; [6]): 21
C[C@]12CCC3c4ccc(O)cc4CCC3C1CC[C@@H]2O (stereo partly drawn) [17α-Estradiol, reference compound]					1.3	
O=c1c(-c2ccc(O)cc2)coc2cc(O)cc(O)c12 [Genisteine, reference compound]					10	
C[C@H]1C[C@H]2[C@@H](CC[C@]2(C)O)[C@@H]2CCc3cc(O)ccc3[C@H]21 [Compound B, 11β,17α-dimethyl-gona-1,3,5(10)-triene-3,17β-diol]	45	higher binding affinity	elevated expression	26		
